According to PubChem BioAssay (NCI):
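Following 48 hours of exposure in 96-well plates, responses at five concentrations were used to interpolate endpoints linearly. TGI is the concentration that stops growth completely.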

Tests used:
Assay in all cases: NCI anticancer screen, dose series, 48 h
CAKI-1 renal = system: CAKI-1 renal
HCT-116 colon = system: HCT-116 colon
HOP-62 NSCLC = system: HOP-62 NSCLC
EKVX NSCLC = system: EKVX NSCLC
UACC-257 melanoma = system: UACC-257 melanoma
HS 578T breast = system: HS 578T breast
MDA-N = system: MDA-N
OVCAR-3 ovarian = system: OVCAR-3 ovarian
UACC-62 melanoma = system: UACC-62 melanoma
NCI-H23 lung = system: NCI-H23 lung
CCRF-CEM leukemia = system: CCRF-CEM leukemia
NCI-H460 lung = system: NCI-H460 lung
HCT-15 colon = system: HCT-15 colon
TK-10 renal = system: TK-10 renal
SK-OV-3 ovarian = system: SK-OV-3 ovarian
SNB-19 CNS = system: SNB-19 CNS
SK-MEL-2 melanoma = system: SK-MEL-2 melanoma
RPMI-8226 leukemia = system: RPMI-8226 leukemia
IGROV1 ovarian = system: IGROV1 ovarian
NCI-H226 lung = system: NCI-H226 lung
NCI/ADR-RES ovarian = system: NCI/ADR-RES ovarian
MDA-MB-231 breast = system: MDA-MB-231 breast
A498 renal = system: A498 renal
OVCAR-8 ovarian = system: OVCAR-8 ovarian
786-0 renal = system: 786-0 renal
KM12 colon = system: KM12 colon
M14 melanoma = system: M14 melanoma
PC-3 prostate = system: PC-3 prostate
LOX IMVI melanoma = system: LOX IMVI melanoma
A549 NSCLC = system: A549 NSCLC
NCI-H522 lung = system: NCI-H522 lung
OVCAR-5 ovarian = system: OVCAR-5 ovarian
HT29 colon = system: HT29 colon
SW-620 colon = system: SW-620 colon
HCC-2998 colon = system: HCC-2998 colon
SR leukemia = system: SR leukemia
MOLT-4 leukemia = system: MOLT-4 leukemia
SK-MEL-28 melanoma = system: SK-MEL-28 melanoma
HOP-92 NSCLC = system: HOP-92 NSCLC
K-562 leukemia = system: K-562 leukemia
T-47D breast = system: T-47D breast
SF-295 CNS = system: SF-295 CNS
MCF7 breast = system: MCF7 breast
HL-60(TB) leukemia = system: HL-60(TB) leukemia
ACHN renal = system: ACHN renal
MDA-MB-435 = system: MDA-MB-435
OVCAR-4 ovarian = system: OVCAR-4 ovarian
SK-MEL-5 melanoma = system: SK-MEL-5 melanoma
DU-145 prostate = system: DU-145 prostate
UO-31 renal = system: UO-31 renal
SF-268 CNS = system: SF-268 CNS
U251 CNS = system: U251 CNS
SNB-75 CNS = system: SNB-75 CNS
COLO 205 colon = system: COLO 205 colon
SF-539 CNS = system: SF-539 CNS
SN12C renal = system: SN12C renal
BT-549 breast = system: BT-549 breast

Measured: TGI

CC(=O)OC1(C)C(=O)OC/C2=C/CN(C)CCC(OC(=O)C(O)(C(C)Cl)CC1C)C2=O (configuration not stated)
> 100 µM: all assays above
